The text below walks through data of US20240401154A1, “SYNTHESIS AND PREPARATION OF ULTRA-LOW VISCOSITY AND HIGH MAGNETIC SUSCEPTIBILITY MAGNETIC IONIC LIQUIDS” (priority 2023, published 2024).

What all share (assay type): physicochemical
The nature of series [1]: Viscosity, Brookfield DVI cone and plate viscometer. Conditions: 21.7° C.; neat MIL dried 48 hours under vacuum. The protocol:
A Brookfield DVI cone and plate viscometer equipped with a CPA-51Z cone spindle was employed to obtain viscosity measurements at […] using approximately 0.5 g of each MIL after extensive drying for 48 hours under vacuum. Viscosity measurements were conducted at 21.7° C. for 15 lanthanide and transition metal MILs examined in this study.
Viscosity measurements were conducted at 21.7° C. for 15 lanthanide and transition metal MILs examined in this study.

Series [2] in a line: Effective magnetic moment from magnetic susceptibility balance (MSB). As to conditions: per formula unit. The procedure: Magnetic properties were analyzed using a magnetic susceptibility balance (MSB, Sherwood Scientific, Cambridge, UK) and a Quantum Design Superconducting Quantum Interference Device (SQUID) magnetometer (MPMS XL-7). The magnetic properties of transition metal MILs were further studied using a SQUID magnetometer to confirm their paramagnetic nature as well as if any magnetic transition occurs in the samples.
Magnetic susceptibility (XM) was calculated through Equation (1).
Effective magnetic moment (μeff) was calculated through Equation (2). In Equation (2), T represents the temperature at which the magnetic susceptibility measurements were conducted.
15 MILs incorporating rare-earth and transition metals were examined using a magnetic susceptibility balance (MSB).

Series [3] can be described thus: Solubility of MILs in organic solvents and water. An excerpt:
The solubility of lanthanide and transition metal MILs was investigated in popular traditional organic solvents. […]
The solubility of lanthanide and transition metal MILs was investigated in popular traditional organic solvents.

Series [4] in a line: Thermal stability, MIL as GC stationary phase with FID. Conditions: exponential increase in response beyond 2,000 pA. The protocol:
(§1) The thermal stability of MILs was measured from 40 to 350° C. at a ramp rate of 5° C. min^−1 by performing thermogravimetric analysis (TGA) using a NETZSCH STA 449 F1 Jupiter thermal analyzer (Selb, Germany). To further investigate the thermal stability of MILs using a more sensitive technique, the solvents were employed as a gas chromatographic (GC) stationary phase and subjected to an oven temperature program from 40 to 200° C. at a ramp rate of 1° C. min^−1 and decomposition/degradation products detected using an ultra-sensitive flame ionization detector (FID), with all measurements being performed on an Agilent Technologies 7890B gas chromatograph (Santa Clara, CA, USA).
To further investigate the thermal stability of MILs using a more sensitive technique, the solvents were employed as a gas chromatographic (GC) stationary phase and subjected to an oven temperature program from 40 to 200° C. at a ramp rate of 1° C. min^−1 and decomposition/degradation products detected using an ultra-sensitive flame ionization detector (FID).

The nature of series [5]: Thermal stability by thermogravimetric analysis (TGA). Conditions: TGA at 10% weight loss. The protocol:
as §1
Volitization/degradation of MILs as a function of temperature were measured using thermogravimetric analysis. The thermal stability of magnetic ionic liquids was measured from 40 to 350° C. at a ramp rate of 5° C. min^−1 by performing thermogravimetric analysis (TGA) using a NETZSCH STA 449 F1 Jupiter thermal analyzer (Selb, Germany).
To investigate the ability of DGE-based MILs to withstand elevated temperatures without undergoing degradation/decomposition, their thermal stabilities were investigated using thermogravimetric analysis (TGA). FIG. 13 through FIG. 27 display thermograms for MILs 1 to 15. The thermogram results are summarized in greater detail in the following paragraphs.

Where [6] appears, read: acetone, chloroform, dichloromethane, acetonitrile, methanol, ethanol, diethyl ether, ethyl acetate, isopropanol at 20% (w/v).
Setting [7] is: hexane, heptane, benzene, toluene at 10% (w/v).
Setting [8] is: hexane, heptane, benzene, toluene at 20% (w/v).
[9] abbreviates: twelve organic solvents (without acetonitrile) at 50% (w/v).

Each structure is given as a SMILES string.

Regarding `O=C(C=C([O-])C(F)(F)F)C(F)(F)F.O=C(C=C([O-])C(F)(F)F)C(F)(F)F.O=C(C=C([O-])C(F)(F)F)C(F)(F)F.O=C(C=C([O-])C(F)(F)F)C(F)(F)F.O=C(C=C([O-])C(F)(F)F)C(F)(F)F.O=C(C=C([O-])C(F)(F)F)C(F)(F)F.O=C(COCC(=O)OC1CCCCC1)OC1CCCCC1.O=C(COCC(=O)OC1CCCCC1)OC1CCCCC1.O=C(COCC(=O)OC1CCCCC1)OC1CCCCC1.O=C(COCC(=O)OC1CCCCC1)OC1CCCCC1.O=C(COCC(=O)OC1CCCCC1)OC1CCCCC1.O=C(COCC(=O)OC1CCCCC1)OC1CCCCC1.[Ni+2].[Ni+2].[Ni+2]` [compound 8], the “Viscosity (cP)” value in series [1] is reported as 827.6 cP. Besides, the “μeff, effective magnetic moment” value in series [2] is on record as 5.53 μB. The Solubility result is “S^b (soluble in acetone, chloroform, dichloromethane, acetonitrile, methanol, ethanol, diethyl ether, ethyl acetate, and isopropanol at 20% (w/v).)” in series [3] (setting [6]); “S^e (insoluble in acetonitrile at 50% (w/v).)” in series [3] (acetonitrile at 50% (w/v)); “S^a (soluble in hexane, heptane, benzene, and toluene at 10% (w/v).)” in series [3] (setting [7]); “S^c (soluble in hexane, heptane, benzene, and toluene at 20% (w/v).)” in series [3] (setting [8]); “S^d (soluble in acetone, chloroform, dichloromethane, methanol, ethanol, diethyl ether, ethyl acetate, isopropanol hexane, heptane, benzene, and toluene at 50% (w/v).)” in series [3] (setting [9]); “S^f (insoluble in water at 0.01% (w/v).)” in series [3] (water at 0.01% (w/v)). In series [4], the “Onset of MIL volatilization (° C.)^1” value was 154 °C. The “Onset of MIL volatilization (° C.)^2” value in series [5] amounted to 182.2 °C.

Take `CCCCCCCCOC(=O)COCC(=O)OCCCCCCCC.CCCCCCCCOC(=O)COCC(=O)OCCCCCCCC.CCCCCCCCOC(=O)COCC(=O)OCCCCCCCC.CCCCCCCCOC(=O)COCC(=O)OCCCCCCCC.CCCCCCCCOC(=O)COCC(=O)OCCCCCCCC.CCCCCCCCOC(=O)COCC(=O)OCCCCCCCC.O=C(C=C([O-])C(F)(F)F)C(F)(F)F.O=C(C=C([O-])C(F)(F)F)C(F)(F)F.O=C(C=C([O-])C(F)(F)F)C(F)(F)F.O=C(C=C([O-])C(F)(F)F)C(F)(F)F.O=C(C=C([O-])C(F)(F)F)C(F)(F)F.O=C(C=C([O-])C(F)(F)F)C(F)(F)F.[Ni+2].[Ni+2].[Ni+2]` [compound 5]: the “Viscosity (cP)” value in series [1] is on record as 119.1 cP. In addition, the “μeff, effective magnetic moment” value in series [2] was 5.33 μB. In addition, the Solubility entry in series [3] (setting [6]) was “S^b (soluble in acetone, chloroform, dichloromethane, acetonitrile, methanol, ethanol, diethyl ether, ethyl acetate, and isopropanol at 20% (w/v).)”; in series [3] (setting [7]) it was “S^a (soluble in hexane, heptane, benzene, and toluene at 10% (w/v).)”; in series [3] (setting [8]), “S^c (soluble in hexane, heptane, benzene, and toluene at 20% (w/v).)”; in series [3] (setting [9]), “S^d (soluble in acetone, chloroform, dichloromethane, methanol, ethanol, diethyl ether, ethyl acetate, isopropanol hexane, heptane, benzene, and toluene at 50% (w/v).)”; in series [3] (water at 0.01% (w/v)), “S^f (insoluble in water at 0.01% (w/v).)”. Besides, in series [4], the “Onset of MIL volatilization (° C.)^1” value was determined as 190 °C. The “Onset of MIL volatilization (° C.)^2” value in series [5] was 264.4 °C.

`CCCCCCOC(=O)COCC(=O)OCCCCCC.CCCCCCOC(=O)COCC(=O)OCCCCCC.CCCCCCOC(=O)COCC(=O)OCCCCCC.CCCCCCOC(=O)COCC(=O)OCCCCCC.CCCCCCOC(=O)COCC(=O)OCCCCCC.CCCCCCOC(=O)COCC(=O)OCCCCCC.O=C(C=C([O-])C(F)(F)F)C(F)(F)F.O=C(C=C([O-])C(F)(F)F)C(F)(F)F.O=C(C=C([O-])C(F)(F)F)C(F)(F)F.O=C(C=C([O-])C(F)(F)F)C(F)(F)F.O=C(C=C([O-])C(F)(F)F)C(F)(F)F.O=C(C=C([O-])C(F)(F)F)C(F)(F)F.[Ni+2].[Ni+2].[Ni+2]` [compound 2]: the “Viscosity (cP)” value in series [1] is given as 248.6 cP. Also, the “μeff, effective magnetic moment” value in series [2] was 5.48 μB. Further, the Solubility entry was “S^b (soluble in acetone, chloroform, dichloromethane, acetonitrile, methanol, ethanol, diethyl ether, ethyl acetate, and isopropanol at 20% (w/v).)” in series [3] (setting [6]); “S^e (insoluble in acetonitrile at 50% (w/v).)” in series [3] (acetonitrile at 50% (w/v)); “S^a (soluble in hexane, heptane, benzene, and toluene at 10% (w/v).)” in series [3] (setting [7]); “S^c (soluble in hexane, heptane, benzene, and toluene at 20% (w/v).)” in series [3] (setting [8]); “S^d (soluble in acetone, chloroform, dichloromethane, methanol, ethanol, diethyl ether, ethyl acetate, isopropanol hexane, heptane, benzene, and toluene at 50% (w/v).)” in series [3] (setting [9]); “S^f (insoluble in water at 0.01% (w/v).)” in series [3] (water at 0.01% (w/v)). Further, the “Onset of MIL volatilization (° C.)^1” value in series [4] was determined as 166 °C. In addition, the “Onset of MIL volatilization (° C.)^2” value in series [5] amounted to 257.0 °C.

For the compound `O=C(C=C([O-])C(F)(F)F)C(F)(F)F.O=C(C=C([O-])C(F)(F)F)C(F)(F)F.O=C(C=C([O-])C(F)(F)F)C(F)(F)F.O=C(C=C([O-])C(F)(F)F)C(F)(F)F.O=C(C=C([O-])C(F)(F)F)C(F)(F)F.O=C(C=C([O-])C(F)(F)F)C(F)(F)F.O=C(COCC(=O)OC1CCCCC1)OC1CCCCC1.O=C(COCC(=O)OC1CCCCC1)OC1CCCCC1.O=C(COCC(=O)OC1CCCCC1)OC1CCCCC1.O=C(COCC(=O)OC1CCCCC1)OC1CCCCC1.O=C(COCC(=O)OC1CCCCC1)OC1CCCCC1.O=C(COCC(=O)OC1CCCCC1)OC1CCCCC1.[Co+2].[Co+2].[Co+2]` [compound 7], the “Viscosity (cP)” value in series [1] was 639.4 cP. Further, the “μeff, effective magnetic moment” value in series [2] stood at 8.11 μB. The Solubility entry is “S^b (soluble in acetone, chloroform, dichloromethane, acetonitrile, methanol, ethanol, diethyl ether, ethyl acetate, and isopropanol at 20% (w/v).)” in series [3] (setting [6]); “S^e (insoluble in acetonitrile at 50% (w/v).)” in series [3] (acetonitrile at 50% (w/v)); “S^a (soluble in hexane, heptane, benzene, and toluene at 10% (w/v).)” in series [3] (setting [7]); “S^c (soluble in hexane, heptane, benzene, and toluene at 20% (w/v).)” in series [3] (setting [8]); “S^d (soluble in acetone, chloroform, dichloromethane, methanol, ethanol, diethyl ether, ethyl acetate, isopropanol hexane, heptane, benzene, and toluene at 50% (w/v).)” in series [3] (setting [9]); “S^f (insoluble in water at 0.01% (w/v).)” in series [3] (water at 0.01% (w/v)). Further, the “Onset of MIL volatilization (° C.)^1” value in series [4] turned out to be 133 °C. The “Onset of MIL volatilization (° C.)^2” value in series [5] was found to be 200.1 °C.

On to `CCCCCCCCOC(=O)COCC(=O)OCCCCCCCC.CCCCCCCCOC(=O)COCC(=O)OCCCCCCCC.CCCCCCCCOC(=O)COCC(=O)OCCCCCCCC.CCCCCCCCOC(=O)COCC(=O)OCCCCCCCC.CCCCCCCCOC(=O)COCC(=O)OCCCCCCCC.CCCCCCCCOC(=O)COCC(=O)OCCCCCCCC.O=C(C=C([O-])C(F)(F)F)C(F)(F)F.O=C(C=C([O-])C(F)(F)F)C(F)(F)F.O=C(C=C([O-])C(F)(F)F)C(F)(F)F.O=C(C=C([O-])C(F)(F)F)C(F)(F)F.O=C(C=C([O-])C(F)(F)F)C(F)(F)F.O=C(C=C([O-])C(F)(F)F)C(F)(F)F.[Mn+2].[Mn+2].[Mn+2]` [compound 6], for which the “Viscosity (cP)” value in series [1] is reported as 96.3 cP. The “μeff, effective magnetic moment” value in series [2] stood at 10.25 μB. Besides, the Solubility entry in series [3] (setting [6]) was “S^b (soluble in acetone, chloroform, dichloromethane, acetonitrile, methanol, ethanol, diethyl ether, ethyl acetate, and isopropanol at 20% (w/v).)”; in series [3] (setting [7]), “S^a (soluble in hexane, heptane, benzene, and toluene at 10% (w/v).)”; in series [3] (setting [8]) it was “S^c (soluble in hexane, heptane, benzene, and toluene at 20% (w/v).)”; in series [3] (setting [9]) it was “S^d (soluble in acetone, chloroform, dichloromethane, methanol, ethanol, diethyl ether, ethyl acetate, isopropanol hexane, heptane, benzene, and toluene at 50% (w/v).)”; in series [3] (water at 0.01% (w/v)), “S^f (insoluble in water at 0.01% (w/v).)”. For the same compound, the “Onset of MIL volatilization (° C.)^1” value in series [4] was 182 °C. Moreover, the “Onset of MIL volatilization (° C.)^2” value in series [5] came to 259.1 °C.
